# The source made the active and inactive calls. The calls are words filed in the database; no cut-off is given here. Where a SMILES comes first, the peptide text is derived from it. [ ]: non-standard residue; d: D form. The star is where a group is joined. Ac6c = NC1(C(=O)O)CCCCC1; Cbz = O=C(OCc1ccccc1)*
# How the values were obtained:
# [1] = Inhibition of Plasmodium falciparum recombinant falcipain 2 using Cbz-Leu-Arg-AMC as substrate after 10 mins by fluorescence spectrophotometric analysis
# Plasmodium falciparum = experiment: Inhibition of Plasmodium falciparum recombinant falcipain 2 using Cbz-Leu-Arg-AMC as substrate at 20 uM after 10 mins by fluorescence spectrophotometric analysis relative to control
# Cathepsin B [2] = molecular target: T1, Cathepsin B (Homo sapiens, UniProt P07858); experiment: Inhibition of human cathepsin B at 20 uM relative to control
# Procathepsin L [3] = molecular target: T2, Procathepsin L (Homo sapiens, UniProt P07711); experiment: Inhibition of human cathepsin L at 20 uM relative to control
# Target sequence in this assay (P07711 114-333 limits assumed): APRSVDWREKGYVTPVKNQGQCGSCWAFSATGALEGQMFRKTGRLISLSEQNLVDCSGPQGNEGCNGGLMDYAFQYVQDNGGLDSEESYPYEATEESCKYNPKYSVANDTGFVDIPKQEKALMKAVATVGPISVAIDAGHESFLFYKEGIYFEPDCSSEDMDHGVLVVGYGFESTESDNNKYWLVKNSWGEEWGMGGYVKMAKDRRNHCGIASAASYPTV
# Homo sapiens = species: Homo sapiens; experiment: Inhibition of human alpha-chymotrypsin using Suc-Leu-Tyr-AMC as substrate assessed as residual activity after 10 mins by Dixon plot analysis
# Cathepsin B [4] = molecular target: T1, Cathepsin B; experiment: Inhibition of human cathepsin B
# Procathepsin L [5] = molecular target: T2, Procathepsin L; experiment: Inhibition of human cathepsin L
# Target sequence in this assay (P07711 whole entry): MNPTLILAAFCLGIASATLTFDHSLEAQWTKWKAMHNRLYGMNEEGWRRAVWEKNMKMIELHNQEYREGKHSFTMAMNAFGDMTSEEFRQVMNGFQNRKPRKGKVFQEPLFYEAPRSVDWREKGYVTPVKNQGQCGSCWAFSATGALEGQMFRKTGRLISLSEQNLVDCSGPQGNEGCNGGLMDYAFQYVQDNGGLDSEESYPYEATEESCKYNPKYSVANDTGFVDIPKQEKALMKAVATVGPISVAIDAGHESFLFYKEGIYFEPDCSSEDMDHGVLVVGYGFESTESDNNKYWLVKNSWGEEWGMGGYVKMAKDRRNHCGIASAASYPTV
inhibition (Plasmodium falciparum) [%],inhibition (Cathepsin B [2]) [%],inhibition (Procathepsin L [3]) [%],Activity (Homo sapiens),Ki (Cathepsin B [4]) [µM],Ki (Procathepsin L [5]) [µM],Compound,Ki [1] [µM]
< 35,< 35,< 35,inactive,,,N#CCNC(=O)C1(NC(=O)C2CCCC2)CCCCC1,7.6
< 35,< 35,< 35,inactive,25,29.8,N#CCNC(=O)C1(NC(=O)CCC2CCCC2)CCCCC1,8.2
< 35,< 35,< 35,inactive,,,COc1ccc(CCC(=O)NC2(C(=O)NCC#N)CCCCC2)cc1OC,7.3
< 35,< 35,< 35,inactive,,,N#CCNC(=O)C1(NC(=O)CCc2cccs2)CCCCC1,8.8
< 35,< 35,< 35,inactive,1.35,0.82,O=CCNC(=O)C1(NC(=O)OCc2ccccc2)CCCCC1 (Cbz-[Ac6c]-Gly-aldehyde),0.065
< 35,< 35,< 35,inactive,,,N#CCNC(=O)C1(NC(=O)CCc2ccco2)CCCCC1,17.2
< 35,< 35,< 35,inactive,,26.5,N#CCNC(=O)C1(NC(=O)OCc2ccccc2)CCCCC1,1.2
< 35,< 35,< 35,inactive,5,13.1,N#CCNC(=O)C1(NC(=O)[C@H]2C[C@@H]2c2ccccc2)CCCCC1 (racemic),2.1
< 35,< 35,< 35,inactive,,25.1,COc1ccccc1CCC(=O)NC1(C(=O)NCC#N)CCCCC1,5.2
< 35,< 35,< 35,inactive,,,CC(C)(NC(=O)OCc1ccccc1)C(=O)NCC#N,
< 35,< 35,< 35,inactive,,,N#CCNC(=O)C1(NC(=O)CCc2cccnc2)CCCCC1,9.4
< 35,< 35,< 35,inactive,,,N#C[C@@H]1CCCN1C(=O)C1(NC(=O)OCc2ccccc2)CCCCC1,
< 35,< 35,< 35,inactive,,,COc1ccc(CCC(=O)NC2(C(=O)NCC#N)CCCCC2)cc1,8.9
